Experimental data reported in US20180216113A1, “METHODS FOR REDUCING PROTEOTOXICITY” (priority 2015, published 2018).

How the values were obtained:
hsp-16.2p::GFP = hsp-16.2p::GFP reporter induction (cytosolic HSR / MCSR); assay type: in vivo, C. elegans; details: for hsp-6 RNAi-induced MCSR (hsp-16.2p::GFP): ceramide fed worms, 100μg/ml, 48 hours, on hsp-6 RNAi
Method: (§1) Bacterial feeding of RNAi experiments was conducted during adulthood to exclude target genes' function during developmental stages. Synchronized eggs were harvested by bleaching and nematodes were grown on plates with E. coli OP50 until they reached early adulthood before they were transferred to RNAi plates. Day 1 adult worms were then grown on the RNAi plates with E. coli HT115 that carried the RNAi construct for 3 days at 20° C. Worms were imaged using a fluorescent microscope for green fluorescent protein (GFP) induction or applied to COPAS Biosorter (Union Biometrica) to quantify the level of GFP induction. The temperature-sensitive sterile strains were grown at 15° C. until they were gravid adults. Then, the cohorts were shifted to 25° C. Day 1 adult worms were transferred to RNAi plates for 2 days before images were taken. For the double RNAi treatment, E. coli carrying the indicated RNAi constructs are mixed 1:1 ratio.
(§2) Lipids, Inc. Lyophilized lipids were dissolved in Methanol with sonication. Ceramides were diluted to 100μg/ml and spotted on top of the OP50 plates or RNAi plates. Worms were transferred to Ceramide-spotted plates at L4 stage and the images were taken after 48 hours. Cardiolipin was fed to bacteria for 2-4 hours (OP50 or RNAi construct-carrying HT115) with final concentration of 100μg/ml. Then the bacteria were spotted on plates before transferring the worms. L4 worms were then transferred to the cardiolipin spotted plates and images were taken after 48 hours.
Worms were grown up to day 1 adults and underwent heat shock at 34° C. for 2 hours, then recovered at 20° C. for overnight before taking images. For the Nile Red Staining experiment, worms were recovered for 48 hours.
(§3) Perhexiline (Sigma) powder was dissolved in dimethylsulfoxide (DMSO) (100 mM). The stock was diluted to 1 mM and 100 μl was spotted on the E. coli OP50 plates or HT115 RNAi plates and dried before transferring the worms. Worms were transferred to new perhexiline plates every other day for three to four days until harvested for following experiment. […]

hsp-6p::GFP = hsp-6p::GFP / hsp-60p::GFP reporter induction (UPRmt); assay type: in vivo, C. elegans; details: for UPRmt caused by cco-1 knockdown: ceramide fed reporter worms
Method: as §1, §2
(§4) Perhexiline (Sigma) powder was dissolved in dimethylsulfoxide (DMSO) (100 mM). The stock was diluted to 1 mM and 100 μl was spotted on the E. coli OP50 plates or HT115 RNAi plates and dried before transferring the worms. Worms were transferred to new perhexiline plates every other day for three to four days until harvested for following experiment. For the perhexiline treatment with multiple numbers of RNAi (e.g., FIG. 4C), worms were transferred to the S-media containing HT115 RNAi bacteria, 100 μM of perhexiline and 1 mM of IPTG in a 96-well plate for 48 hrs.

C. elegans [1] = assay: Triglyceride quantification in worms; assay type: in vivo; details: perhexiline treated worms
Method: (§5) To quantify triglyceride content, a Triglyceride quantification kit (Bio Vision) was used according to the manufacturer's protocol. Briefly, worms were harvested from plates and washed with M9 three times. Worms were homogenized with 5% NP-40 in water using a glass dounce homogenizer to extract mostly the intestinal tissues by checking the lysates under a dissecting microscope. Worms looked like empty shells once the intestinal tissues were extracted out. The samples were heated slowly at 90° C. for 5 minutes and cooled down to room temperature. Heating was repeated once more prior to centrifugation of the samples for 2 minutes to bring down debris. Supernatant was removed and mixed with enzymes provided in the kit according to the manufacturer's manual. Measurement was done using microplate reader M1000 (TECAN) at Ex/Em=535/590 nm. Calculations were done after subtracting 0 standard readings as a background.
Sample Triglyceride control (C)=B/V×D nmol/μl or mM
as §3

C. elegans [2] = assay: Oxygen consumption rate of whole worms (Seahorse); assay type: in vivo; details: perhexiline treatment of hsp-6 RNAi animals
Method: Oxygen consumption of whole worms was measured using the Seahorse XF96 (Seahorse Bioscience). Worms were washed off from plates with M9 to remove residual bacteria. Then, 50 worms (10 worms/well/100 μl) were transferred to the microplate. 50 μl of M9 was added to the wells and the oxygen consumption rate was measured. All experiments were repeated at least three times.

[3] = test system: aggregated PolyQ proteins (Q35::YFP); assay: Filter trap assay of aggregated PolyQ proteins in worms; assay type: in vivo, C. elegans; details: AM140 worms
Method: (§6) 100μg of protein samples were applied on to cellulose acetate membrane with 0.22 μm pore size (Schlechtes+Schule), assembled in vacuum slot blotter (Bio-Dot, Bio-Rad). Membrane was washed with 0.2% SDS five times on the blotter and subjected to antibody incubation for detecting aggregated protein retained on the membrane. Briefly, membrane was incubated with anti-GFP antibody (1:3000 dilution in 5% milk in PBS, Roche) overnight in a cold room. Membrane was washed with PBST (PBST with 0.05% Tween-20) for three times, then incubated with secondary antibody (donkey anti-mouse antibody conjugated with HRP, 1:5000 dilution in 5% milk in PBS, Jackson Immuno Research). Membranes were washed with PBST three times and exposed to film after applying ECL solutions (Pierce) to visualize the protein bands.
as §4

[4] = test system: polyglutamine repeats in Huntingtin exon 1 (Q78); assay: Filter trap assay of polyQ aggregates in human primary fibroblasts; assay type: cell-based; details: perhexiline 400 nM, 48 hours
Method: The following siRNAs were tested for depleting the indicated genes in the human primary fibroblasts or HEK cells: hspa9 siRNA (#1 and #2), accl siRNA (#1 and #2), fas siRNA (#1 and #2) (Ambion). Scrambled siRNA with no known mammalian homology (non-targeting siRNA #1 (Ambion) was used as negative control. Double siRNA treatment was performed by mixing two different siRNAs indicated at 1:1 ratio. Cells were transfected with the siRNAs using JetPrime according to the manufacturer's manual and then harvested after 48 h. Control vector-transfected cells were used as controls for all the experiments.
as §6, with “Membranes were washed with PBST three times and exposed to film after applying ECL solutions (Pierce) to visualize the protein bands.” left out

cytosolic HSP70 = assay: Western blotting of cytosolic HSP70 in human primary fibroblasts; assay type: cell-based; details: human primary fibroblasts (GFP expressing cells)
Method: The following siRNAs were tested for depleting the indicated genes in the human primary fibroblasts or HEK cells: hspa9 siRNA (#1 and #2), accl siRNA (#1 and #2), fas siRNA (#1 and #2) (Ambion). Scrambled siRNA with no known mammalian homology (non-targeting siRNA #1 (Ambion) was used as negative control. Double siRNA treatment was performed by mixing two different siRNAs indicated at 1:1 ratio. Cells were transfected with the siRNAs using JetPrime according to the manufacturer's manual and then harvested after 48 h. Control vector-transfected cells were used as controls for all the experiments. For SDS-PAGE, 20-40μg of protein samples were loaded on 4-12% bis-tris SDS gel (Invitrogen). The gel was transferred to nitrocellulose membrane (GE) using XCell II blot module (Invitrogen). Then, membranes were incubated with antibodies and exposed to film as described above. mtHSP70 (Abcam), α-Tubulin (Sigma), GFP (Roche), and cytosolic HSP70 (HSP70/HSP72, Enzo life) were used to probe the membrane. The western blot bands' intensity was measured using ImageJ software. For the cell culture experiments, cells were grown to 90% confluent and washed with PBS. Indicated concentrations of perhexiline were diluted in the cell growth media with serum and replaced in cell culture dishes. After 48 hours, cells were washed with PBS and harvested for following experiments.

[5] = test system: human primary fibroblasts; assay: Triglyceride content of human primary fibroblasts; assay type: cell-based; details: human primary fibroblasts (GFP expressing cells) after perhexiline treatment
Method: as §5
For the mammalian cell culture samples, cells were washed with cold PBS and homogenized with 5% NP-40 in water using a syringe with 22 G needle, followed by the procedure shown above. All experiments were done with three biological repeats.
For the cell culture experiments, cells were grown to 90% confluent and washed with PBS. Indicated concentrations of perhexiline were diluted in the cell growth media with serum and replaced in cell culture dishes. […]

Structure (SMILES): CCCCCCCCCCCCC/C=C/[C@@H](O)[C@H](CO)NC(=O)CCCCCCCCCCCCCCCCCCC [C20 ceramide]
- hsp-6 RNAi-induced MCSR (hsp-16.2p::GFP) (hsp-16.2p::GFP): partially block
- UPRmt caused by cco-1 knockdown (hsp-6p::GFP): did not affect

Structure (SMILES): CCCCCCCCCCCCC/C=C/[C@@H](O)[C@H](CO)NC(=O)CCCCCCCCCCCCCCCCCCCCC [C22 ceramide]
- hsp-6 RNAi-induced MCSR (hsp-16.2p::GFP) (hsp-16.2p::GFP): completely inhibited
- UPRmt caused by cco-1 knockdown (hsp-6p::GFP): did not affect

Structure (SMILES): C1CCC(C(CC2CCCCN2)C2CCCCC2)CC1 (stereo not drawn) [perhexiline, 2-(2,2-dicyclohexylethyl)piperidine]
- cytosolic hsp-16.2 expression (hsp-16.2p::GFP; perhexiline treated hsp-16.2p::GFP;CF512 reporter worms): specifically induced
- induction of UPRmt (hsp-6p::GFP, hsp-60p::GFP) (hsp-6p::GFP; perhexiline treated reporter worms): moderately induced
- fat accumulation (triglyceride content) (C. elegans [1]): increased
- overall oxygen consumption rate (C. elegans [2]): did not further reduce
- levels of aggregated PolyQ proteins [3]: decreased levels
- polyglutamine protein aggregation [4]: reduced
- expression of cytosolic HSP70 (cytosolic HSP70): induce expression
- triglyceride levels [5]: increased
